Source: patent publication EP1818058A2, “TREATMENT OF MMP-MEDIATED DERMATOLOGICAL DISEASES WITH PEMIROLAST” (Astion Pharma A/S, priority 2006, dated 2007)
pIC50: −log10 of the molar value.

How the values were obtained:
MMP-1 = molecular target: T1, MMP-1 (Homo sapiens, UniProt P03956); assay: MMP enzyme assay (fluorogenic Mca peptide substrate, MDS Pharma Services); assay type: biochemical; conditions: concentration giving 50 % inhibition; MMP-1 from Human rheumatoid synovial fibroblast; read-out: Concentration of Pemirolast
T1 construct: The methods employ Human rheumatoid synovial fibroblast (MMP-1); endogenous in cells; host or cells: Human rheumatoid synovial fibroblast
T1 sequence (P03956 100-469): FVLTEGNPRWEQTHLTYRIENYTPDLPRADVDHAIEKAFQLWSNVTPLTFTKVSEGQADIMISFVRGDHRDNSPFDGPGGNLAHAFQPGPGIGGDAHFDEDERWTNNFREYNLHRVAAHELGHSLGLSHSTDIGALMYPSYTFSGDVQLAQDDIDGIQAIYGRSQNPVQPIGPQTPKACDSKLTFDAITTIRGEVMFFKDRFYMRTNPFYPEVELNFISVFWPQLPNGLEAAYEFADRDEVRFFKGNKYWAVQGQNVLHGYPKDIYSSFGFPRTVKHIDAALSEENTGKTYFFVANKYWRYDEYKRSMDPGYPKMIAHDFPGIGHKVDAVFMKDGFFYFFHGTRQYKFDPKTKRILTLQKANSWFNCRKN
Description: (§1) The inhibitory effect of Pemirolast on human MMP's and cytokines were determined by enzyme assays carried out by MDS Pharma Services.
(§2) The inhibition of MMP's can be determined according to the test methods described by Knight CG, Willenbrock F, Murphy G (A novel coumarin-labelled peptide for sensitive continuous assays of the matrix metalloproteinases, FEBS Lett. 1992 Jan 27;296(3):263-6); Johnson LL, Dyer R, Hupe DJ (Matrix metalloproteinases, Curr Opin Chem Biol. 1998 Aug;2(4):466-71); and Olson MW, Gervasi DC, Mobashery S, Fridman R (Kinetic analysis of the binding of human matrix metalloproteinase-2 and -9 to tissue inhibitor of metalloproteinase (TIMP)-1 and TIMP-2, J Biol Chem. 1997 Nov 21;272(47):29975-83). The methods employ Human rheumatoid synovial fibroblast (MMP-1) and Human recombinant (MMP-2 and MMP-3) and Human recombinant (E.coli) (MMP-7) as the MMP source. The substrate is Mca-Pro-Leu-Gly-Leu-Dpa-Ala-Arg-NH2. The enzymatic reaction is based on the conversion of Mca-Pro-Leu-Gly-Leu-Dpa-Ala-Arg to Mca-Pro-Leu-Gly + Leu-Dpa-Ala-Arg-NH2, where Mca-Pro-Leu-Gly is quantified using spectrofluorimetric quantitation. As reference compounds are employed TIMP-1 and TIMP-2. Such methods are commercially available at MDS Pharma Services.

MMP-2 = molecular target: T2, MMP-2 (Homo sapiens, UniProt P08253); assay: as above; assay type: biochemical; conditions: concentration giving 50 % inhibition; Human recombinant MMP-2; read-out: Concentration of Pemirolast
T2 sequence (P08253 110-660): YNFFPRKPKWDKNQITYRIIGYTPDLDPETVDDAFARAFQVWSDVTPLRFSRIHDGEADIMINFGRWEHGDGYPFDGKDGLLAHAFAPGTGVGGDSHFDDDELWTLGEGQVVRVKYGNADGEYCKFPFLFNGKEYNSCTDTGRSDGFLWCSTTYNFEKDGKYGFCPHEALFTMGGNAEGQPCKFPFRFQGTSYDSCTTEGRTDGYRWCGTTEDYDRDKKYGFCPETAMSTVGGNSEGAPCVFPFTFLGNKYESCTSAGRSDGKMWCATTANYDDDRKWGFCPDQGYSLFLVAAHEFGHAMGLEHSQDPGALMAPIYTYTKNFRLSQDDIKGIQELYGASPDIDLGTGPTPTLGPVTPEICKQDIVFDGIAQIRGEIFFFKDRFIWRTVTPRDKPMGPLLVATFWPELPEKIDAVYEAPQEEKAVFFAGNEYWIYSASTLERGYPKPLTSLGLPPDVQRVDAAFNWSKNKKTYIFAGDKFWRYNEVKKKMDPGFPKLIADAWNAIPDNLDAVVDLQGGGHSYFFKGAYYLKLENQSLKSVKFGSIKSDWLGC
Description: as §1, §2

MMP-3 = MMP-3 (Homo sapiens, UniProt P08254); assay: as above; assay type: biochemical; conditions: concentration giving 50 % inhibition; Human recombinant MMP-3; read-out: Concentration of Pemirolast
MMP-3, sequence (P08254 100-477): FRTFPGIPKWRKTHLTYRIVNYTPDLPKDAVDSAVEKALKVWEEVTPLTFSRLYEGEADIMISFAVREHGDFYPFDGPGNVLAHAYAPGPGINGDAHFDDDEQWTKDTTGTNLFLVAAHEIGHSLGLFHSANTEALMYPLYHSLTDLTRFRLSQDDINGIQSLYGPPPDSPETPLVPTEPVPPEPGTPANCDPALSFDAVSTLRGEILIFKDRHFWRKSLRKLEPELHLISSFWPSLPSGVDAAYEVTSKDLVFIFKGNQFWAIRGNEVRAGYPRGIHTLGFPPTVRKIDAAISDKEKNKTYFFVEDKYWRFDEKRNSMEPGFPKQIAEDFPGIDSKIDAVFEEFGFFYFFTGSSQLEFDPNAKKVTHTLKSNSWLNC
Description: as §1, §2

MMP-7 = molecular target: T3, MMP-7 (Homo sapiens, UniProt P09237); assay: as above; assay type: biochemical; conditions: concentration giving 50 % inhibition; Human recombinant (E.coli) MMP-7; read-out: Concentration of Pemirolast
T3 construct: host or cells: E. coli
T3 sequence (P09237 95-267): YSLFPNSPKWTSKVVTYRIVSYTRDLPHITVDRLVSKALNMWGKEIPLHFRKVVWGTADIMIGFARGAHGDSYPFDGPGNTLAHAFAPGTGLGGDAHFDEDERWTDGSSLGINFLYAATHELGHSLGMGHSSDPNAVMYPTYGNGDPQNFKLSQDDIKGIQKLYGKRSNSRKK
Description: as §1, §2

IL-1α = assay: Cytokine production, LPS induced human PBMC; assay type: cell-based; conditions: statement in words only, no value given
Description: (§3) The inhibition of Pemirolast on cytokine production was determined using the assay "LPS induced human PBMC".

TNF-α = assay: Cytokine production, LPS induced human PBMC; assay type: cell-based; conditions: concentration giving 50 % inhibition, read-out: Concentration of Pemirolast
Description: as §3

[1] = test system: arachidonic acid-induced ear-inflammation; assay: Arachidonic acid-induced ear-inflammation test in mice; assay type: in vivo, female BALB/cA mice; conditions: intraperitoneally 30 minutes before arachidonic acid on the right ear
Description: The anti-inflammatory potential of Pemirolast can be tested in "arachidonic acid-induced ear-inflammation test in mice", a commonly employed method for screening and evaluation of antiinflammatory drugs. Dexamethasone was employed as reference compound.
The study can be performed in female BALB/cA mice from M & B A/S, DK-8680 Ry. The test substances (various concentration of Pemirolast dissolved in aqueous solutions) and the reference compound are administered intraperitoneally in volumes of 20 ml per kg body weight 30 minutes before application of arachidonic acid to the ear. All groups are then treated with 20 µl arachidonic acid, 100 mg/ml in acetone, on the right ear. One hour after the application of arachidonic acid the mice are sacrificed, the ears cut from the tip with a punch biopsy knife (8 mm diameter) and weighed. Mean weights and standard deviations are calculated. Relative ear oedema is assessed as the weight difference between right and left ear of each mouse expressed as percent of the left ear. Percent inhibition of the relative ear oedema compared with the vehicle treated groups is calculated for the test substance and reference compound treated groups. […]

acne vulgaris = assay: Case of treatment of acne vulgaris; assay type: in vivo, person
From the text: A person was suffering from acne vulgaris characterised by comedones and some inflammatory lesions. They had previously regularly used a 5% benzoyl peroxide cream to treat the condition. During a flare up of the condition they applied a 5.0% aqueous solution of Pemirolast (potassium salt) once daily for four weeks to the areas affected. […] The treatment was followed and assessed by a physician.

[2] = person, 5.0% aqueous solution of Pemirolast (potassium salt) once daily for four weeks on affected areas

Row | SMILES | pIC50 (MMP-1) | pIC50 (MMP-2) | pIC50 (MMP-3) | pIC50 (MMP-7) | inhibition of IL-1α (IL-1α) | pIC50 (TNF-α) | inflammatory reaction in the arachidionic acid treated ear [1] | inflamed area surrounding the lesion (acne vulgaris; [2]) | inflammatory lesions (acne vulgaris; [2]) | reddened inflamed area (acne vulgaris; same patient, usual previous treatment with 5% benzoyl peroxide cream)
1 | Cc1cccn2c(=O)c(-c3nnn[nH]3)cnc12 [Pemirolast, 9-methyl-3-(1H-tetrazol-5-yl)-4H-pyrido[1,2-a]pyrimidin-4-one] | 4.74 | 4.60 | 4.49 | 4.49 | inhibits | 4.00 | significantly prevented the inflammatory reaction | recessed without any noticeable scarring | completely recessed | –
2 | O=C(OOC(=O)c1ccccc1)c1ccccc1 [benzoyl peroxide] | – | – | – | – | – | – | – | – | – | did not remove the reddened inflamed area
